# In paper PMC10178848, “Modulating fast skeletal muscle contraction protects skeletal muscle in animal models of Duchenne muscular dystrophy” (The Journal of Clinical Investigation, 2023):
# Like-named read-outs stand apart in the source and are kept apart here.
# Tested on: GRMD plasma proteins
# Type: in vivo, dog
# [1] = Post-Treatment to GRMD baseline, Increased in GRMD
smiles,measurement,setting,value
O=c1ccc(-c2cnc(OCC(F)(F)F)nc2)nn1Cc1cncc(F)c1 [EDG-5506],Change from GRMD Baseline (fraction): Tyrosine-protein phosphatase non-receptor type 11 (PTPN11),[1],-0.1671 fraction
same,Change from GRMD Baseline (fraction): UMP-CMP kinase (CMPK1),[1],0.3595 fraction
same,Change from GRMD Baseline (fraction): Ubiquitin carboxyl-terminal hydrolase 25 (USP25),[1],0.0097 fraction
same,Change from GRMD Baseline (fraction): Ubiquitin carboxyl-terminal hydrolase isozyme L1 (UCHL1),[1],0.0043 fraction
same,Change from GRMD Baseline (fraction): Ubiquitin-fold modifier 1 (UFM1),[1],-0.1676 fraction
same,Change from GRMD Baseline (fraction): Vascular cell adhesion protein 1 (VCAM1),[1],-0.0398 fraction
same,Change from GRMD Baseline (fraction): Vitamin K-dependent protein C (PROC),[1],0.0209 fraction
same,Change from GRMD Baseline (fraction): Vitronectin (VTN),[1],-0.1254 fraction
same,Change from GRMD Baseline (fraction): cAMP-dependent protein kinase catalytic subunit alpha (PRKACA),[1],-0.3909 fraction
same,Change from GRMD Baseline (fraction): dCTP pyrophosphatase 1 (DCTPP1),[1],-0.286 fraction
same,Chitotriosidase-1 (CHIT1): Change from GRMD Baseline (fraction),[1],0.0322 fraction
same,Chorionic somatomammotropin hormone (CSH1 CSH2): Change from GRMD Baseline (fraction),[1],-0.0339 fraction
same,Chromobox protein homolog 5 (CBX5): Change from GRMD Baseline (fraction),[1],0.2228 fraction
same,Coagulation Factor X (F10): Change from GRMD Baseline (fraction),[1],0.1794 fraction
same,Coagulation factor IX (F9): Change from GRMD Baseline (fraction),[1],0.0608 fraction
same,"Complement component 1 Q subcomponent-binding protein, mitochondrial (C1QBP): Change from GRMD Baseline (fraction)",[1],0.0901 fraction
same,Connective tissue growth factor (CTGF): Change from GRMD Baseline (fraction),[1],-0.0093 fraction
same,Cyclin-dependent kinase 1:G2/mitotic-specific cyclin-B1 complex (CDC2 CCNB1): Change from GRMD Baseline (fraction),[1],0.0208 fraction
same,Cyclin-dependent kinase 5:Cyclin-dependent kinase 5 activator 1 complex (CDK5 CDK5R1): Change from GRMD Baseline (fraction),[1],0.0687 fraction
same,Cytokine receptor-like factor 1:Cardiotrophin-like cytokine factor 1 Complex (CRLF1 CLCF1): Change from GRMD Baseline (fraction),[1],0.0138 fraction
same,"Dual 3',5'-cyclic-AMP and -GMP phosphodiesterase 11A (PDE11A): Change from GRMD Baseline (fraction)",[1],0.0321 fraction
same,"Ectodysplasin-A, secreted form (EDA): Change from GRMD Baseline (fraction)",[1],0.0092 fraction
same,Endothelial cell-selective adhesion molecule (ESAM): Change from GRMD Baseline (fraction),[1],-0.0069 fraction
same,Endothelial monocyte-activating polypeptide 2 (AIMP1): Change from GRMD Baseline (fraction),[1],-0.0021 fraction
same,Extracellular superoxide dismutase [Cu-Zn] (SOD3): Change from GRMD Baseline (fraction),[1],0.0677 fraction
same,Ficolin-2 (FCN2): Change from GRMD Baseline (fraction),[1],0.0082 fraction
same,Fms-related tyrosine kinase 3 ligand (FLT3LG): Change from GRMD Baseline (fraction),[1],0.0399 fraction
same,Galactoside 3(4)-L-fucosyltransferase (FUT3): Change from GRMD Baseline (fraction),[1],0.1128 fraction
same,Galectin-10 (CLC): Change from GRMD Baseline (fraction),[1],0.0216 fraction
same,Glial fibrillary acidic protein (GFAP): Change from GRMD Baseline (fraction),[1],-0.0254 fraction
same,Glycylpeptide N-tetradecanoyltransferase 1 (NMT1): Change from GRMD Baseline (fraction),[1],0.0839 fraction
same,Group 10 secretory phospholipase A2 (PLA2G10): Change from GRMD Baseline (fraction),[1],0.0518 fraction
same,Growth hormone receptor (GHR): Change from GRMD Baseline (fraction),[1],0.0479 fraction
same,Growth-regulated alpha protein (CXCL1): Change from GRMD Baseline (fraction),[1],-0.0445 fraction
same,Growth/differentiation factor 15 (GDF15): Change from GRMD Baseline (fraction),[1],-0.0019 fraction
same,Hepatocyte growth factor (HGF): Change from GRMD Baseline (fraction),[1],0.0007 fraction
same,Hepcidin (HAMP): Change from GRMD Baseline (fraction),[1],-0.0103 fraction
same,Immunoglobulin M (IGHM IGJ IGK@ IGL@): Change from GRMD Baseline (fraction),[1],0.0023 fraction
same,Importin subunit alpha-1 (KPNA2): Change from GRMD Baseline (fraction),[1],-0.1696 fraction
same,Induced myeloid leukemia cell differentiation protein Mcl-1 (MCL1): Change from GRMD Baseline (fraction),[1],-0.1236 fraction
same,Inorganic pyrophosphatase (PPA1): Change from GRMD Baseline (fraction),[1],-0.0163 fraction
same,Insulin-like growth factor-binding protein 7 (IGFBP7): Change from GRMD Baseline (fraction),[1],0.064 fraction
same,Integrin alpha-IIb: beta-3 complex (ITGA2B ITGB3): Change from GRMD Baseline (fraction),[1],0.0053 fraction
same,Interleukin-4 (IL4): Change from GRMD Baseline (fraction),[1],-0.0251 fraction
same,Interleukin-6 receptor subunit beta (IL6ST): Change from GRMD Baseline (fraction),[1],0.06 fraction
same,Interleukin-8 (CXCL8): Change from GRMD Baseline (fraction),[1],-0.0291 fraction
same,Interleukin-10 receptor subunit beta (IL10RB): Change from GRMD Baseline (fraction),[1],-0.0324 fraction
same,Interleukin-17 receptor C (IL17RC): Change from GRMD Baseline (fraction),[1],-0.0159 fraction
same,Interleukin-18 receptor accessory protein (IL18RAP): Change from GRMD Baseline (fraction),[1],-0.0292 fraction
same,Interleukin-27 (IL27 EBI3): Change from GRMD Baseline (fraction),[1],-0.0149 fraction
same,Interleukin-36 beta (IL36B): Change from GRMD Baseline (fraction),[1],0.0098 fraction
same,Killer cell immunoglobulin-like receptor 3DS1 (KIR3DS1): Change from GRMD Baseline (fraction),[1],0.1583 fraction
same,Killer cell lectin-like receptor subfamily F member 1 (KLRF1): Change from GRMD Baseline (fraction),[1],0.2014 fraction
same,Lamin-B1 (LMNB1): Change from GRMD Baseline (fraction),[1],-0.0238 fraction
same,Laminin (LAMA1 LAMB1 LAMC1): Change from GRMD Baseline (fraction),[1],0.0548 fraction
same,Low-density lipoprotein receptor-related protein 1B (LRP1B): Change from GRMD Baseline (fraction),[1],-0.0345 fraction
same,Macrophage-stimulating protein receptor (MST1R): Change from GRMD Baseline (fraction),[1],0.0197 fraction
same,Matrilin-3 (MATN3): Change from GRMD Baseline (fraction),[1],-0.0333 fraction
same,Matrilysin (MMP7): Change from GRMD Baseline (fraction),[1],-0.0041 fraction
same,N-terminal pro-BNP (NPPB): Change from GRMD Baseline (fraction),[1],-0.0202 fraction
same,NKG2D ligand 3 (ULBP3): Change from GRMD Baseline (fraction),[1],0.0123 fraction
same,Neural cell adhesion molecule L1-like protein (CHL1): Change from GRMD Baseline (fraction),[1],-0.0412 fraction
same,Neurexophilin-1 (NXPH1): Change from GRMD Baseline (fraction),[1],0.3842 fraction
same,OX-2 membrane glycoprotein (CD200): Change from GRMD Baseline (fraction),[1],0.1164 fraction
same,Persephin (PSPN): Change from GRMD Baseline (fraction),[1],-0.0043 fraction
same,"Phosphatidylinositol 4,5-bisphosphate 3-kinase catalytic subunit gamma isoform (PIK3CG): Change from GRMD Baseline (fraction)",[1],0.0292 fraction
same,Pituitary adenylate cyclase-activating polypeptide 27 (ADCYAP1): Change from GRMD Baseline (fraction),[1],0.0483 fraction
same,Platelet factor 4 (PF4): Change from GRMD Baseline (fraction),[1],0.0577 fraction
same,Platelet glycoprotein VI (GP6): Change from GRMD Baseline (fraction),[1],0.0535 fraction
same,Prolactin (PRL): Change from GRMD Baseline (fraction),[1],-0.0256 fraction
same,Prolactin receptor (PRLR): Change from GRMD Baseline (fraction),[1],0.085 fraction
same,Proteasome subunit alpha type-6 (PSMA6): Change from GRMD Baseline (fraction),[1],0.0724 fraction
same,Protein E7_HPV18 (Human-virus): Change from GRMD Baseline (fraction),[1],0.0128 fraction
same,Proto-oncogene tyrosine-protein kinase receptor Ret (RET): Change from GRMD Baseline (fraction),[1],0.0043 fraction
same,RNA-binding protein 39 (RBM39): Change from GRMD Baseline (fraction),[1],-0.1347 fraction
same,Ras GTPase-activating protein 1 (RASA1): Change from GRMD Baseline (fraction),[1],-0.0705 fraction
same,Ribosome maturation protein SBDS (SBDS): Change from GRMD Baseline (fraction),[1],0.0714 fraction
same,SPARC-related modular calcium-binding protein 1 (SMOC1): Change from GRMD Baseline (fraction),[1],-0.0726 fraction
same,Secreted and transmembrane protein 1 (SECTM1): Change from GRMD Baseline (fraction),[1],-0.1238 fraction
same,Serine/threonine-protein kinase PAK 3 (PAK3): Change from GRMD Baseline (fraction),[1],0.077 fraction
same,Serine/threonine-protein kinase PAK 7 (PAK7): Change from GRMD Baseline (fraction),[1],-0.0176 fraction
same,Serine/threonine-protein kinase pim-1 (PIM1): Change from GRMD Baseline (fraction),[1],0.0551 fraction
same,Serum amyloid A-1 protein (SAA1): Change from GRMD Baseline (fraction),[1],-0.1642 fraction
same,Sialic acid-binding Ig-like lectin 7 (SIGLEC7): Change from GRMD Baseline (fraction),[1],-0.0123 fraction
same,Small ubiquitin-related modifier 3 (SUMO3): Change from GRMD Baseline (fraction),[1],-0.0342 fraction
same,Stromelysin-1 (MMP3): Change from GRMD Baseline (fraction),[1],0.0381 fraction
same,Stromelysin-2 (MMP10): Change from GRMD Baseline (fraction),[1],-0.0469 fraction
same,Synaptosomal-associated protein 25 (SNAP25): Change from GRMD Baseline (fraction),[1],0.0227 fraction
same,T-cell surface glycoprotein CD4 (CD4): Change from GRMD Baseline (fraction),[1],0.004 fraction
same,T-lymphocyte activation antigen CD86 (CD86): Change from GRMD Baseline (fraction),[1],0.0642 fraction
same,TATA-box-binding protein (TBP): Change from GRMD Baseline (fraction),[1],-0.0819 fraction
same,Thyroxine-binding globulin (SERPINA7): Change from GRMD Baseline (fraction),[1],-0.0761 fraction
same,Transcription factor IIIB 90 kDa subunit (BRF1): Change from GRMD Baseline (fraction),[1],0.0702 fraction
same,Tumor necrosis factor ligand superfamily member 18 (TNFSF18): Change from GRMD Baseline (fraction),[1],0.0235 fraction
same,Tumor necrosis factor receptor superfamily member 13B (TNFRSF13B): Change from GRMD Baseline (fraction),[1],-0.0295 fraction
same,Tumor necrosis factor receptor superfamily member 13C (TNFRSF13C): Change from GRMD Baseline (fraction),[1],-0.0266 fraction
same,Tumor-associated calcium signal transducer 2 (TACSTD2): Change from GRMD Baseline (fraction),[1],-0.0008 fraction
same,Ubiquitin-conjugating enzyme E2 G2 (UBE2G2): Change from GRMD Baseline (fraction),[1],-0.0144 fraction
same,WNT1-inducible-signaling pathway protein 1 (WISP1): Change from GRMD Baseline (fraction),[1],0.0281 fraction
same,WNT1-inducible-signaling pathway protein 3 (WISP3): Change from GRMD Baseline (fraction),[1],0.0371 fraction
same,alpha-2-macroglobulin receptor-associated protein (LRPAP1): Change from GRMD Baseline (fraction),[1],-0.0289 fraction
same,"cGMP-dependent 3',5'-cyclic phosphodiesterase (PDE2A): Change from GRMD Baseline (fraction)",[1],0.1206 fraction
same,Change from GRMD Baseline (fraction),"Protein deglycase DJ-1 (PARK7), EDG-5506 treatment to GRMD baseline",0.1853 fraction
same,Change from GRMD Baseline (fraction),"Protein deglycase DJ-1 (PARK7), Post-Treatment to GRMD baseline",-0.0618 fraction
same,Change from GRMD Baseline (fraction),"Proto-oncogene vav (VAV1), EDG-5506 treatment to GRMD baseline",0.0609 fraction
same,Change from GRMD Baseline (fraction),"Proto-oncogene vav (VAV1), Post-Treatment to GRMD baseline",0.2228 fraction
same,Change from GRMD Baseline (fraction),"SH2 domain-containing protein 1A (SH2D1A), EDG-5506 treatment to GRMD baseline",0.0272 fraction
same,Change from GRMD Baseline (fraction),"SH2 domain-containing protein 1A (SH2D1A), Post-Treatment to GRMD baseline",0.0814 fraction
same,Change from GRMD Baseline (fraction),"Serine/threonine-protein kinase TBK1 (TBK1), EDG-5506 treatment to GRMD baseline",0.0144 fraction
same,Change from GRMD Baseline (fraction),"Serine/threonine-protein kinase TBK1 (TBK1), Post-Treatment to GRMD baseline",0.0415 fraction
same,Change from GRMD Baseline (fraction),"Sialic acid-binding Ig-like lectin 14 (SIGLEC14), EDG-5506 treatment to GRMD baseline",0.0643 fraction
same,Change from GRMD Baseline (fraction),"Sialic acid-binding Ig-like lectin 14 (SIGLEC14), Post-Treatment to GRMD baseline",-0.0249 fraction
same,Change from GRMD Baseline (fraction),"Sorting nexin-4 (SNX4), EDG-5506 treatment to GRMD baseline",-0.0709 fraction
same,Change from GRMD Baseline (fraction),"Sorting nexin-4 (SNX4), Post-Treatment to GRMD baseline",0.088 fraction
same,Change from GRMD Baseline (fraction),"Thrombin (F2), EDG-5506 treatment to GRMD baseline",0.2436 fraction
same,Change from GRMD Baseline (fraction),"Thrombin (F2), Post-Treatment to GRMD baseline",0.0387 fraction
same,Change from GRMD Baseline (fraction),"Transgelin-2 (TAGLN2), EDG-5506 treatment to GRMD baseline",0.1205 fraction
same,Change from GRMD Baseline (fraction),"Transgelin-2 (TAGLN2), Post-Treatment to GRMD baseline",-0.0633 fraction
same,Change from GRMD Baseline (fraction),"WAP, kazal, immunoglobulin, kunitz and NTR domain-containing protein 1 (WFIKKN1), EDG-5506 treatment to GRMD baseline",0.1609 fraction
same,Change from GRMD Baseline (fraction),"WAP, kazal, immunoglobulin, kunitz and NTR domain-containing protein 1 (WFIKKN1), Post-Treatment to GRMD baseline",-0.0946 fraction
